Laboratory results taken from patent US20230398087A1, “APPLICATION OF BZP IN TREATMENT OF ISCHEMIC CARDIOVASCULAR AND CEREBRAL VASCULAR DISEASES” (priority 2020, published 2023).

Tested on: acute global cerebral ischemia in rats
Assay: Acute global cerebral ischemia in rats, volume of cerebral infarction (nuclear magnetic resonance)
Format: in vivo
Conditions: BZP 0.75, 3, 12 and 24 mg/kg; Br-NBP 10.5 mg/kg; NBP-K 9.6 mg/kg; vs model group
Description: 2.7 The Protective Effect of BZP on Acute Global Cerebral Ischemia in Rats: […]

SMILES	volume of cerebral infarction
CCCCC1OC(=O)c2cc(Br)ccc21 (centres unmarked) [Br-NBP, reference compound]	significantly reduce
CCCCC(O)c1ccccc1C(=O)[O-].[K+] (centres unmarked) [NBP-K, reference compound]	significantly reduce
